Measurements published in PMC6805442, “Discovery of low-molecular weight anti-PD-L1 peptides for cancer immunotherapy” (Journal for Immunotherapy of Cancer, 2019).
Like-named read-outs stand apart in the source and are kept apart here. No end group written: not given here.

Assays:
[1] = target: T1, human PD-1/PD-L1 interaction (hPD-L1 protein) (Homo sapiens, UniProt Q9NZQ7); assay: Blockade of the human PD-1/PD-L1 interaction, plate coated with human PD-L1 protein; type: biochemical; details: for Block Efficiency: hPD-L1 protein, blocking profile (Fig. 2d, e)
T1 construct: G&P Biosciences, human PD-L1 ECD, cat# FCL0784B; purchased G&P Biosciences FCL0784B (PD-L1)
T1 sequence (Q9NZQ7 19-238 limits assumed): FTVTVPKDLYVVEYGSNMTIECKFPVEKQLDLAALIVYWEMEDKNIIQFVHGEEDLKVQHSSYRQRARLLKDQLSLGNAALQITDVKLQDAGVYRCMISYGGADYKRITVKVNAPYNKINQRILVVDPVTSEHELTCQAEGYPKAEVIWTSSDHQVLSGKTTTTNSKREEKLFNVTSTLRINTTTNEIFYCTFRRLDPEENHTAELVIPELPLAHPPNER
Experimental: (§1) Ninety-six-well plates were coated with 100 ng of PD-L1 protein (G&P Biosciences, human PD-L1 ECD, cat# FCL0784B. mouse PD-L1, cat# FCL3502B) and later blocked with 2% BSA for 2 h at room temperature. Various concentrations of peptides were loaded into the wells and incubated for 1 h at room temperature. […] Streptavidin-HRP (R&D systems) and chromogenic substrate were added into the wells. OD450 was then recorded and referenced to OD540.
(§2) We next examined the blocking efficiency of the anti-PD-L1 peptides at 10 μM (Fig. 2c). […] We also determined IC50 of each peptide using recombinant human PD-L1 protein and DU-145 cancer cells.

[2] = target: T2, mouse PD-1/PD-L1 interaction (mPD-L1 protein) (Mus musculus, UniProt Q9EP73); assay: Blockade of the mouse PD-1/PD-L1 interaction, mouse PD-L1 protein; type: biochemical; details: for Block Efficiency: mPD-L1 protein, blocking profile (Fig. 2h, i)
T2 construct: purchased G&P Biosciences FCL3502B (PD-L1)
T2 sequence (Q9EP73 19-239 limits assumed): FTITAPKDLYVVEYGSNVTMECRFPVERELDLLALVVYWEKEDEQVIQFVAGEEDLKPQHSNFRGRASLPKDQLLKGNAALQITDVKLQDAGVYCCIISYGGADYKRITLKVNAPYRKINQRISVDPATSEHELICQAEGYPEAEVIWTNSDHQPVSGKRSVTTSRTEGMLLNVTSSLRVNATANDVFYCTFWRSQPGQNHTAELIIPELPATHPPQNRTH
Experimental: as §1
By contrast, the blocking efficiency of the anti-mouse PD-L1 antibody was 92%.

[3] = target: human PD-L1/CD80 interaction (Homo sapiens, UniProt Q9NZQ7); assay: Blockade of the CD80/PD-L1 interaction; type: biochemical; details: for blocking efficiency, CD80/PD-L1: 10 μM
Chain of human PD-L1/CD80 interaction (Q9NZQ7 19-238 limits assumed): as the sequence (Q9NZQ7 19-238 limits assumed) above
Text: The CD80/PD-L1 interaction specifically restrains T cell activation, and blockade of the interaction could enhance the anti-tumor activity of the T cells. […] We, therefore, investigated whether the anti-PD-L1 peptides block the CD80/PD-L1 interaction.
Supplementary file 40425_2019_705_MOESM1_ESM.png: Additional file 1: Figure S1. Blockade of the PD-L1/CD80 interaction by anti-PD-L1 peptides and antibody. […] IC50 and blocking efficiency of CLP002 (b) and CLP003 (c) against the human PD-L1/CD80 interaction. Results are represented as the mean ± SD (n = 3).

[4] = target: T3, recombinant human PD-L1 ECD protein (Homo sapiens, UniProt Q9NZQ7); assay: SPR binding to human PD-L1; details: for kon: read-out: Ka
T3 construct: the recombinant human PD-L1 ECD protein were evaluated using SPR; purchased G&P Biosciences FCL0784B
T3 sequence (Q9NZQ7 19-238 limits assumed): as above
Experimental: Binding affinities of the PD-L1 specific peptides for human PD-L1 protein were determined by SPR (BI4500, Biosensing Instrument). PD-L1 protein was diluted to 10 μg/mL with sodium acetate buffer (pH 5.0, GE Healthcare, PA) and covalently coated onto a CM5 sensor chip (CM Dextran Sensor Chip, Biosensing Instrument) using the standard Amine Coupling Kit (GE Healthcare, PA). Approximately 6500 RU of PD-L1 protein were immobilized onto the chip. A second channel was used as a reference. HBS-EP+ buffer (GE Healthcare) was employed at a flow rate of 60 μL/min. A series of concentrations of each peptide (15, 30, 60, 125, 250, 500, 1000, 5000 and 10,000 nM) were prepared in HBS-EP+ running buffer to obtain the equilibrium dissociation constant (KD) values of the peptides. The CM5 sensor chip was regenerated with 10 mM NaOH for 20 s. The results were analyzed using the software of Bi data analysis software.
Binding affinities of the discovered peptides against the recombinant human PD-L1 ECD protein were evaluated using SPR. The PD-L1 protein was immobilized on a CM5 golden chip by the direct amine coupling method. […] Even though the binding affinity of peptides are generally lower than that of antibodies, the very high affinity of antibodies may result in on-target, off-tumor toxicity in healthy tissues that express low levels of PD-L1. In a recent study, scientists constructed several chimeric antigen receptor (CAR) T cells with different affinities to ICAM-1. […] CAR-T cells with nanomolar affinity lyse healthy cells that express a low level of ICAM-1. By contrast, CAR-T cells with micromolar affinity only attack tumor cells with high levels of ICAM-1 but not healthy cells with low levels of ICAM-1, leading to less toxicity.

[5] = target: T4, PD-1/PD-L1 interaction on DU-145 cells (Homo sapiens, UniProt Q9NZQ7); assay: Blockade of the PD-1/PD-L1 interaction, plate coated with DU-145 cells; type: cell-based; details: for Block Efficiency: DU145 cancer cells, blocking profile (Fig. 2d, f)
T4 construct: when the plate was coated with DU-145 cells; endogenous in cells; host or cells: DU-145
T4 sequence (Q9NZQ7 19-290): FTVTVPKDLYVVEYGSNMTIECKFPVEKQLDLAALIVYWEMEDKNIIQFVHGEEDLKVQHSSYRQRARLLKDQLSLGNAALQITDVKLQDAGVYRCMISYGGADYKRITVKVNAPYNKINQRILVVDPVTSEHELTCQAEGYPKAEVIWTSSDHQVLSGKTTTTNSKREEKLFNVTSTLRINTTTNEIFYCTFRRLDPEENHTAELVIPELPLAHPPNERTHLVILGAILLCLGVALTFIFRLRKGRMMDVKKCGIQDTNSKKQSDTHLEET
Experimental: as §1, §2

[6] = target: T5, PD-1/PD-L1 interaction on mouse cancer cell line 4 T1 (Mus musculus, UniProt Q9EP73); assay: Blockade of the PD-1/PD-L1 interaction on 4T1 cells; type: cell-based; details: for Block Efficiency: blocking profile (Fig. 2h, j)
T5 construct: endogenous in cells; host or cells: 4T1
T5 sequence (Q9EP73 19-290): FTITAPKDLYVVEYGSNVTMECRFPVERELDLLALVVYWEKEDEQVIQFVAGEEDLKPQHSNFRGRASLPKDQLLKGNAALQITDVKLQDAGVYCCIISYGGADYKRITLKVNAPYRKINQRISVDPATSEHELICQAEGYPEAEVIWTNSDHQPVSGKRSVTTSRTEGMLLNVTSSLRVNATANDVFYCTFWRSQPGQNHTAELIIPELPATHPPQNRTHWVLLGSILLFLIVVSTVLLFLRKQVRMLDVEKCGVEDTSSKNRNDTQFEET

HYPFRPHANQAS [CLP001]
Block Efficiency [1]: 0%
Block Efficiency [2]: 34%
blocking efficiency, CD80/PD-L1 [3]: approximately 17%
kon [4]: 5190 ± 212 M⁻¹ s⁻¹
Block Efficiency [5]: 0%
IC50 ([6]; 4T1 cancer cells): 910 nM
Block Efficiency ([6]; 4T1 cancer cells): 35%

DYHDPSLPTLRK [CLP004]
Block Efficiency [1]: 52%
Block Efficiency [2]: 48%
blocking efficiency, CD80/PD-L1 [3]: ~27%
kon [4]: 5140 ± 390 M⁻¹ s⁻¹
IC50 ([5]; DU145 cancer cells coated on the plate): 200 nM
Block Efficiency [5]: 60%
IC50 ([6]; 4T1 cancer cells): 730 nM
Block Efficiency ([6]; 4T1 cancer cells): 34%

WHRSYYTWNLNT [CLP002]
IC50 [1]: 2170 nM
Block Efficiency [1]: 85%
IC50 [2]: 1910 nM
blocking efficiency ([2]; 10 μM, mouse PD-L1 protein (Fig. 2g)): 71%
Block Efficiency [2]: 68%
IC50 [3]: 2450 nM
blocking efficiency, CD80/PD-L1 [3]: ~48%
Kd ([4]; SPR, human PD-L1 immobilized on CM5 chip (~6500 RU), HBS-EP+, 60 μL/min, peptide 15-10,000 nM, mean ± SD (n = 3)): 366 nM
kon [4]: 4520 ± 666 M⁻¹ s⁻¹
IC50 [5]: 1430 nM
Block Efficiency [5]: 80%
IC50 [6]: 2440 nM
Block Efficiency ([6]; 4T1 cancer cells): 61%

WHFSYNWRWLPP [CLP003]
kon [4]: 22600 M⁻¹ s⁻¹
